From ChEMBL document CHEMBL2203192, “Creation of an HDAC-based yeast screening method for evaluation of marine-derived actinomycetes: discovery of streptosetin A” (J Nat Prod, 2012)
pIC50: −log10 of the molar value. Converted amounts (≈) assume the structure as drawn.

How the values were obtained:
[1] = target: T1, NAD-dependent protein deacetylase sirtuin-2 (Homo sapiens, UniProt Q8IXJ6); assay: Inhibition of human recombinant SIRT2 using Arg-His-Lys-Lys(epsilon-acetyl)-AMC at 37 degC for 45 mins by fluorescent screening assay
T1 sequence (Q8IXJ6 whole entry): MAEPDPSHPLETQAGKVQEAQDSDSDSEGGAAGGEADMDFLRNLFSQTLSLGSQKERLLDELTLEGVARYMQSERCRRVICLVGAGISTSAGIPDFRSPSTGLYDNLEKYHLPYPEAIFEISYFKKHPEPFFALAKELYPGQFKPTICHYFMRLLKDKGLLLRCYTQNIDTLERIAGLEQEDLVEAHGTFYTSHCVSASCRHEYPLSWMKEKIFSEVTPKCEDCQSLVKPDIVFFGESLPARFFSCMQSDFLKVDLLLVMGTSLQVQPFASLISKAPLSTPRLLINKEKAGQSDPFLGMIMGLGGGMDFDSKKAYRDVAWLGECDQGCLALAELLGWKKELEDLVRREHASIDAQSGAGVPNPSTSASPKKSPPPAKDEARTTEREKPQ

[2] = target: T2, NAD-dependent protein deacetylase sirtuin-1 (Homo sapiens, UniProt Q96EB6); assay: Inhibition of human recombinant SIRT1 using Arg-His-Lys-Lys(epsilon-acetyl)-AMC at room temperature for 45 mins by fluorescent screening assay
T2 sequence (Q96EB6 whole entry): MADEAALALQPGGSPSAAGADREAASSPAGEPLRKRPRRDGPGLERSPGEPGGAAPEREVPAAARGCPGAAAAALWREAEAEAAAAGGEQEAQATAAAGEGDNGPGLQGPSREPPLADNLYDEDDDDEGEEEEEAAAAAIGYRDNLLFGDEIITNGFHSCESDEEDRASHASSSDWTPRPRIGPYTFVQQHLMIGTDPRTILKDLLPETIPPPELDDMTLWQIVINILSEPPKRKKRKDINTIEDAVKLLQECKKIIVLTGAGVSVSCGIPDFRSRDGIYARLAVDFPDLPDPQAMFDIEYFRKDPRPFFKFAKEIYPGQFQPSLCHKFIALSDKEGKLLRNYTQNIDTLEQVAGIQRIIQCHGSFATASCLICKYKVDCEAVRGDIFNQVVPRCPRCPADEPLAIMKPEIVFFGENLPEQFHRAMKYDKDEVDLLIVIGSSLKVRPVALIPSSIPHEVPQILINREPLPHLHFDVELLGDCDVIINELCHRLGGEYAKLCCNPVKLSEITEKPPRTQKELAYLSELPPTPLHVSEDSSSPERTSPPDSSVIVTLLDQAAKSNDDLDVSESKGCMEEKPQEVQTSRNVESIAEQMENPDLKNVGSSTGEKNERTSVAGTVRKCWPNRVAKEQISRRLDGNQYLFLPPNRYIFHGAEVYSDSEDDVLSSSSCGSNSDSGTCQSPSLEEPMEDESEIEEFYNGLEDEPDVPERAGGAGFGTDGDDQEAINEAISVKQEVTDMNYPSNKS

[3] = system: Saccharomyces cerevisiae; assay: Inhibition of Sir2p in Saccharomyces cerevisiae DMY2843 assessed as minimum inhibitory concentration
[4] = system: Saccharomyces cerevisiae; assay: Cytotoxicity against Saccharomyces cerevisiae DMY2843 at 10 mM; assay type: organism-based; conditions: in vivo, 10000 µM

| pIC50 [1] | pIC50 [2] | MIC [3] [µM] | Compound | Activity [4] |
| --- | --- | --- | --- | --- |
| 2.35 | 2.43 | 2500 (≈ 869 µg/mL) | CC[C@@H]1CC(=O)[C@H]2[C@@H](CC=C(C)[C@@H]2O)[C@]1(C)C(=O)C1=C(O)NCC1=O [STREPTOSETIN A] | Toxic |
| – | – | 12.5 (≈ 4.93 µg/mL) | CC(NC(=O)c1ccccc1/N=C/c1c(O)ccc2ccccc12)c1ccccc1 (stereo not given) | – |
